Measured values: patent US20250195590A1, “PHAGE AND ALLICIN COMPOSITION FOR INFECTION TREATMENT” (GUANGZHOU MEDICAL UNIVERSITY, priority 2023, published 2025)
In brackets after ≈: the same amount, converted by molar mass.

How the values were obtained:
[1] = system: Pseudomonas aeruginosa host bacteria; experiment: Drug resistance of host bacteria; type: cell-based
Pseudomonas aeruginosa [2] = experiment: Measurement of the minimum inhibitory concentration (micro broth dilution method); type: cell-based; settings: allicin alone, preliminary experiment, FIG. 1
Method: (§1) The allicin is diluted to 7.5 mg/mL, 3.75 mg/mL, 0.375 mg/mL, 0.0375 mg/mL, 0.00375 mg/mL and 0.000375 mg/mL respectively, and the phage is diluted to 3×10^4 pfu/mL, 3×10^3 pfu/mL, 3×10^2 pfu/ml, and 3×10^1 pfu/ml respectively, and the host bacteria are diluted to 3×10^5 cfu/mL; allicin, phage, and host bacteria are aspirated 50 μL each and added into each well of the 96-well plate, then the OD600 value is measured, the OD600 value is measured again after overnight shaker incubation at 37° C. and 220 rpm, and the absorbance change value is calculated to determine the inhibition effect on the bacteria.
After the experiment, the experimental results are shown in FIG. 2, and the MIC of phage is 1×10^3 pfu/mL.

[3] = system: Pseudomonas aeruginosa phage vB_PaeP_GZMU_A1002; experiment: Effect of allicin on phage potency; settings: incubated 37° C. 3 h, paired sample T test, 0.05 level, FIG. 3
Method: The solution of Pseudomonas aeruginosa phage vB_PaeP_GZMU_A1002 is diluted to a certain extent, and 100 μL of the diluted phage is mixed with 100 μL of the host bacteria and incubated at 37° C. for 15 min. The incubation solution is mixed with 0.7% semisolid LB agar, spread evenly on top of 1.5% solid LB agar spread on a Petri dish in advance, and cultured in a constant temperature incubator at 37° C. for 8 h or overnight. After the culture, a number of light-transmitting plaques may be seen in the Petri dish. A number of light-transmissive phage spots are visible in the petri dish after incubation, and the optimal view is selected to have 30-300 phage spots in the field of view, and the potency is calculated as potency=(10×number of phage spots)/dilution.
The Pseudomonas aeruginosa phage vB_PaeP_GZMU_A1002 is diluted to 10-8, and 100 μL of phage is mixed with 100 μL of allicin. At the same time, 100 μL of phage is mixed with 100 μL of LB as the control group, which is repeated in parallel for three times, mixed and incubated at 37° C. for 3 h, and then the potency is measured.
In this embodiment, paired sample T test is used to determine whether allicin has an effect on phage titer.

Pseudomonas aeruginosa [4] = experiment: Bacteriostasis effect of phage in combination with allicin (combination experiment, OD600, FIC index); type: cell-based
Method: as §1
In the combination experiment, the bacteriostatic effect of allicin in different concentrations (i.e. allicin alone) is calculated and analyzed when the phage concentration is 0 pfu/mL.
In the combination experiment, the bacteriostatic effect of phages with different concentrations (that is, phages alone) is calculated and analyzed when the concentration of allicin is 0 μg/mL.
Different concentrations of allicin and phage are mixed in a 96-well plate by broth dilution method, and the OD600 value is measured. After overnight shaking table culture at 37° C. and 220 rpm, the OD600 value is measured again, and the chart is drawn.
Judging the combination effect according to the fractional inhibitory concentration (FIC) index^[6]: FIC=MIC (in combination with group A)/MIC (group A used alone)+MIC (in combination with group B)/MIC (group B used alone).
FIC index interpretation criteria: when the FIC index is less than 0.5, the two drugs are synergistic; when the FIC index is 0.5-1, the two drugs are mutually additive; when the FIC index is greater than 1 and less than 2, the two drugs are unrelated; when the FIC index is greater than 2, the two drugs are antagonistic.

Compound: NCC[C@H](O)C(=O)N[C@@H]1C[C@H](N)[C@@H](O[C@H]2O[C@H](CN)[C@@H](O)[C@H](O)[C@H]2O)[C@H](O)[C@H]1O[C@H]1O[C@H](CO)[C@@H](O)[C@H](N)[C@H]1O [Amikacin]
- Drug resistance of host bacteria ([1]; strain P. aeruginosa′-5): Resistant

Compound: Piperacillin/Tazobactam
- Drug resistance of host bacteria ([1]; strain B- P. aeruginosa-029): Resistant
- Drug resistance of host bacteria ([1]; strain B- P. aeruginosa-037): Resistant
- Drug resistance of host bacteria ([1]; strain P. aeruginosa-2 (r74)): Resistant
- Drug resistance of host bacteria ([1]; strain P. aeruginosa-14): Resistant
- Drug resistance of host bacteria ([1]; strain P. aeruginosa-23): Resistant
- Drug resistance of host bacteria ([1]; strain P. aeruginosa-26): Resistant
- Drug resistance of host bacteria ([1]; strain P. aeruginosa-30): Resistant
- Drug resistance of host bacteria ([1]; strain P. aeruginosa-32): Resistant
- Drug resistance of host bacteria ([1]; strain P. aeruginosa′-3): Resistant
- Drug resistance of host bacteria ([1]; strain P. aeruginosa′-4): Resistant
- Drug resistance of host bacteria ([1]; strain P. aeruginosa′-5): Resistant
- Drug resistance of host bacteria ([1]; strain P. aeruginosa′-6): Resistant
- Drug resistance of host bacteria ([1]; strain P. aeruginosa′-15): Resistant

Compound: O=C(O)c1cn(C2CC2)c2cc(N3CCNCC3)c(F)cc2c1=O [Ciprofloxacin]
- Drug resistance of host bacteria ([1]; strain B- P. aeruginosa-029): Resistant
- Drug resistance of host bacteria ([1]; strain B- P. aeruginosa-035): Resistant
- Drug resistance of host bacteria ([1]; strain B- P. aeruginosa-037): Resistant
- Drug resistance of host bacteria ([1]; strain B- P. aeruginosa-041): Resistant
- Drug resistance of host bacteria ([1]; strain B- P. aeruginosa-042): Resistant
- Drug resistance of host bacteria ([1]; strain B-P. AERUGINOSA-027): Resistant
- Drug resistance of host bacteria ([1]; strain P. aeruginosa-25): Resistant
- Drug resistance of host bacteria ([1]; strain P. aeruginosa-29): Resistant

Compound: C[C@H]1[C@H](NC(=O)/C(=N\OC(C)(C)C(=O)O)c2csc(N)n2)C(=O)N1S(=O)(=O)O [Aztreonam]
- Drug resistance of host bacteria ([1]; strain B- P. aeruginosa-029): Resistant
- Drug resistance of host bacteria ([1]; strain B- P. aeruginosa-037): Resistant
- Drug resistance of host bacteria ([1]; strain P. aeruginosa-2 (r74)): Resistant
- Drug resistance of host bacteria ([1]; strain P. aeruginosa-4): Resistant
- Drug resistance of host bacteria ([1]; strain P. aeruginosa-13): Resistant
- Drug resistance of host bacteria ([1]; strain P. aeruginosa-14): Resistant
- Drug resistance of host bacteria ([1]; strain P. aeruginosa-22): Resistant
- Drug resistance of host bacteria ([1]; strain P. aeruginosa-25): Resistant
- Drug resistance of host bacteria ([1]; strain P. aeruginosa-26): Resistant
- Drug resistance of host bacteria ([1]; strain P. aeruginosa-27): Resistant
- Drug resistance of host bacteria ([1]; strain P. aeruginosa-30): Resistant
- Drug resistance of host bacteria ([1]; strain P. aeruginosa′-3): Resistant
- Drug resistance of host bacteria ([1]; strain P. aeruginosa′-4): Resistant
- Drug resistance of host bacteria ([1]; strain P. aeruginosa′-5): Resistant
- Drug resistance of host bacteria ([1]; strain P. aeruginosa′-10): Resistant

Compound: NC[C@H]1O[C@H](O[C@H]2[C@H](O)[C@@H](O[C@H]3O[C@H](CO)[C@@H](O)[C@H](N)[C@H]3O)[C@H](N)C[C@@H]2N)[C@H](N)C[C@@H]1O [Tobramycin]
- Drug resistance of host bacteria ([1]; strain P. aeruginosa-29): Resistant

Compound: C=CCS[S+]([O-])CC=C (centres unmarked) [allicin]
- MIC (Pseudomonas aeruginosa [2]): 1250 µg/mL (≈ 7.7 mM)
- effect of allicin on phage potency (titer) [3]: no negative effect
- MIC (Pseudomonas aeruginosa [4]; Pseudomonas aeruginosa, combination experiment, phage concentration 0 pfu/mL, FIG. 4, read-out: MIC of allicin alone): 1250 µg/mL
- OD600 (Pseudomonas aeruginosa [4]; allicin alone 1.25 mg/mL, FIG. 4): about 0
- decrease of amount when used in combination as compared to singly (Pseudomonas aeruginosa [4]; allicin with phage): three orders of magnitude
- best combination dosage, allicin (Pseudomonas aeruginosa [4]; in combination with 1×10^2 pfu/mL phage, FIG. 6): 1.25 µg/mL
- optimal concentration for combination, allicin (Pseudomonas aeruginosa [4]; with 1×10^2 pfu/mL phage, FIG. 6): 1/1000

Compound: CO/N=C(\C(=O)N[C@@H]1C(=O)N2C(C(=O)[O-])=C(C[N+]3(C)CCCC3)CS[C@H]12)c1csc(N)n1 [Cefepime]
- Drug resistance of host bacteria ([1]; strain B- P. aeruginosa-029): Resistant
- Drug resistance of host bacteria ([1]; strain P. aeruginosa-2 (r74)): Resistant
- Drug resistance of host bacteria ([1]; strain P. aeruginosa-24): Resistant
- Drug resistance of host bacteria ([1]; strain P. aeruginosa-30): Resistant
- Drug resistance of host bacteria ([1]; strain P. aeruginosa′-5): Resistant
